Values of other authors, collected in patent US20100113580A1, “COMBINATION THERAPIES FOR THE TREATMENT OF OBESITY” (priority 2008, published 2010).

Conditions: literature studies of single weight loss drugs

Compound	weight loss of body weight for drug compared with placebo
CCN[C@@H](C)Cc1cccc(C(F)(F)F)c1 [dexfenfluramine]	about 5%
CCCCCCCCCCC[C@@H](C[C@@H]1OC(=O)[C@H]1CCCCCC)OC(=O)[C@H](CC(C)C)NC=O [orlistat]	about 5%
CC(C)CC(N(C)C)C1(c2ccc(Cl)cc2)CCC1 (stereo not drawn) [sibutramine]	about 5%
